# Patent US10173991B2, “Sulfone amide linked benzothiazole inhibitors of endothelial lipase” (BRISTOL-MYERS SQUIBB COMPANY, priority 2014, dated 2019)
# Biological target: Endothelial lipase (EL) (Homo sapiens (Human), UniProt Q9Y5X9)
# Assay: Endothelial lipase (EL) enzymatic assay with fluorescent substrate A10070 in DMPG vesicles
# Assay type: biochemical
# Conditions: not given
# In short: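 Substrate A10070 sits in sonicated DMPG vesicles at 0.11 mole fraction. Lipase and compound preincubated 30 min, 37° C, in HEPES pH 8.0 buffer with CaCl2.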
# Sequence of Endothelial lipase (EL) (Q9Y5X9 21-500): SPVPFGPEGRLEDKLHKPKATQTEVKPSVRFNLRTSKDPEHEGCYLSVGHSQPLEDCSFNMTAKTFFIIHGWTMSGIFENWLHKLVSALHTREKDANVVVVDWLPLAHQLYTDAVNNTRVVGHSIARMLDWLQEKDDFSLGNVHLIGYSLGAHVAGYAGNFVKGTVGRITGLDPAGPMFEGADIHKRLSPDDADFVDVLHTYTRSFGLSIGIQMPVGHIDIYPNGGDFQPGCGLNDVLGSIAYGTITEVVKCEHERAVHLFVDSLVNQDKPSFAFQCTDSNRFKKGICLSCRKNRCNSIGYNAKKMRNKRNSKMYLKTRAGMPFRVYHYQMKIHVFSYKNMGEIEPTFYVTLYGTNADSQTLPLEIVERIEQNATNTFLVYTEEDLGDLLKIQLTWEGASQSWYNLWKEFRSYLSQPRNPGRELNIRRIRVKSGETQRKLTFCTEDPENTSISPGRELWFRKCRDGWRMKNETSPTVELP
row,IC50 [nM],SMILES
1,7,"COCCS(=O)(=O)C(C(=O)NCC(=O)NC1CC1)c1nc2ccc(-c3cccnc3F)cc2s1 (stereo not shown) [Example 318, N-[(cyclopropyl-carbamoyl)methyl]-2-[6-(2-fluoropyridin-3-yl)-1,3-benzothiazol-2-yl]-2-(2-methoxyethane-sulfonyl)acetamide]"
2,4,"CC(C)S(=O)(=O)C(C(=O)NCC(=O)NC1CC1)c1nc2cc(F)c(-c3ccc4c(=O)n(C)ccc4c3)cc2s1 (stereo not shown) [Example 242, N-[(cyclopropyl-carbamoyl)methyl]-2-[5-fluoro-6-(2-methyl-1-oxo-1,2-dihydro-isoquinolin-6-yl)-1,3-benzothiazol-2-yl]-2-(propane-2-sulfonyl) acetamide]"
3,15,"COc1cncc(-c2cc3sc(C(C(=O)NCC(=O)NC4CC4)S(C)(=O)=O)nc3cc2F)c1 (stereo not shown) [Example 324, N-[(cyclopropyl-carbamoyl)methyl]-2-[5-fluoro-6-(5-methoxypyridin-3-yl)-1,3-benzothiazol-2-yl]-2-methanesulfonyl-acetamide]"
4,65,"CS(=O)(=O)C(C(=O)NCC(=O)NC1CC1)c1nc2cc(F)c(-c3cccnc3C(F)(F)F)cc2s1 (stereo not shown) [Example 326, N-[(cyclopropyl-carbamoyl)methyl]-2-{5-fluoro-6-[2-(trifluoromethyl)pyridin-3-yl]-1,3-benzothiazol-2-yl}-2-methanesulfonyl-acetamide]"
5,23,"CS(=O)(=O)C(C(=O)NCC(=O)NC1CC1)c1nc2cc(F)c(-c3cncc(F)c3)cc2s1 (stereo not shown) [Example 323, N-[(cyclopropyl-carbamoyl)methyl]-2-[5-fluoro-6-(5-fluoropyridin-3-yl)-1,3-benzothiazol-2-yl]-2-methanesulfonyl-acetamide]"
6,28,"COCCS(=O)(=O)C(C(=O)NCC(=O)NC1CC1)c1nc2cc(-c3ccc(NC(=O)OC)cc3)ccc2s1 (stereo not shown) [Example 104, methyl N-{4-[2-({[(cyclopropyl-carbamoyl)methyl]carbamoyl}(2-methoxyethane-sulfonyl)methyl)-1,3-benzothiazol-5-yl]phenyl} carbamate]"
7,7,"O=C(CNC(=O)C(c1nc2cc(-c3ccc(F)nc3)ccc2s1)S(=O)(=O)CCC(F)(F)F)NC1CC1 (stereo not shown) [Example 12, N-[(cyclopropyl-carbamoyl)methyl]-2-[5-(6-fluoropyridin-3-yl)-1,3-benzothiazol-2-yl]-2-(3,3,3-trifluoropropane-sulfonyl) acetamide]"
8,3,"N#CCCNC(=O)c1ccc(-c2cc3sc(C(C(=O)NCC(=O)NC4CC4)S(=O)(=O)CCC(F)(F)F)nc3cc2F)cc1 (stereo not shown) [Example 44, N-(2-cyanoethyl)-4-[2-({[(cyclopropyl-carbamoyl)methyl]carbamoyl}(3,3,3-trifluoropropane-sulfonyl)methyl)-5-fluoro-1,3-benzothiazol-6-yl] benzamide]"
9,118,"CCOc1ccc(-c2ccc3nc(C(C(=O)NCC(=O)NC4CC4)S(=O)(=O)CCOC)sc3c2)cn1 (stereo not shown) [Example 299, N-[(cyclopropyl-carbamoyl)methyl]-2-[6-(6-ethoxypyridin-3-yl)-1,3-benzothiazol-2-yl]-2-(2-methoxyethane-sulfonyl)acetamide]"
10,29,"COCCS(=O)(=O)C(C(=O)NCC(=O)NC1CC1)c1nc2cc(-c3cnc(C)nc3)c(C)cc2s1 (stereo not shown) [Example 184, N-[(cyclopropyl-carbamoyl)methyl]-2-(2-methoxyethane-sulfonyl)-2-[6-methyl-5-(2-methylpyrimidin-5-yl)-1,3-benzothiazol-2-yl]acetamide]"
11,49,"COCCS(=O)(=O)C(C(=O)NCC(=O)NC1CC1)c1nc2cc(F)c(-c3ccc(-c4cc(O)n[nH]4)cc3)cc2s1 (stereo not shown) [Example 415, N-[(cyclopropyl-carbamoyl)methyl]-2-{5-fluoro-6-[4-(3-hydroxy-1H-pyrazol-5-yl)phenyl]-1,3-benzothiazol-2-yl}-2-(2-methoxyethane-sulfonyl)acetamide]"
12,69,"COCCS(=O)(=O)C(C(=O)NCC(=O)NC1CC1)c1nc2ccc(-c3ccc(C(F)(F)F)nc3)cc2s1 (stereo not shown) [Example 296, N-[(cyclopropyl-carbamoyl)methyl]-2-(2-methoxyethane-sulfonyl)-2-{6-[6-(trifluoromethyl)pyridin-3-yl]-1,3-benzothiazol-2-yl}acetamide]"
13,4,CC(C)n1cc(-c2cc3sc(C(C(=O)NCC(=O)NC4CC4)S(C)(=O)=O)nc3cc2OC(F)F)ccc1=O (stereo not shown) [Example 606]

# The remaining lines, values behind:
row,SMILES,IC50 [nM]
1,"CC(C)S(=O)(=O)C(C(=O)NCC(=O)NC1CC1)c1nc2cc(-c3cccnc3F)c(F)cc2s1 (stereo not shown) [Example 272, N-[(cyclopropyl-carbamoyl)methyl]-2-[6-fluoro-5-(2-fluoropyridin-3-yl)-1,3-benzothiazol-2-yl]-2-(propane-2-sulfonyl)acetamide]",29
2,"COC(=O)Nc1ccc(-c2cc3sc(C(C(=O)NCC(=O)NC4CC4)S(C)(=O)=O)nc3cc2OC(F)F)cc1 (stereo not shown) [Example 607, methyl N-{4-[2-({[(cyclopropyl-carbamoyl)methyl]carbamoyl} (methanesulfonyl)methyl)-5-(difluoromethoxy)-1,3-benzothiazol-6-yl]phenyl} carbamate]",5
3,"CC(C)OC(=O)Nc1ccc(-c2cc3sc(C(C(=O)NCC(=O)NC4CC4)S(=O)(=O)C(C)C)nc3cc2F)cc1 (stereo not shown) [Example 541, propan-2-yl N-{4-[2-({[(cyclopropyl-carbamoyl)methyl]carbamoyl} (propane-2-sulfonyl)methyl)-5-fluoro-1,3-benzothiazol-6-yl]phenyl} carbamate]",2
4,"CC1(O)CN(C(=O)c2ccc(-c3ccc4nc(C(C(=O)NCC(=O)NC5CC5)S(=O)(=O)c5ccccc5)sc4c3)cc2)C1 (stereo not shown) [Example 402, 2-(benzenesulfonyl)-N-[(cyclopropyl-carbamoyl)methyl]-2-{6-[4-(3-hydroxy-3-methylazetidine-1-carbonyl)phenyl]-1,3-benzothiazol-2-yl}acetamide]",6
5,"CS(=O)(=O)C(C(=O)NCC(=O)NC1CC1)c1nc2cc(F)c(-c3ccc(-c4ccccc4)nc3)cc2s1 (stereo not shown) [Example 203, N-[(cyclopropyl-carbamoyl)methyl]-2-[5-fluoro-6-(6-phenylpyridin-3-yl)-1,3-benzothiazol-2-yl]-2-methanesulfonyl-acetamide]",3
6,"CN(C)S(=O)(=O)C(C(=O)NCC(=O)NC1CC1)c1nc2c(F)cc(-c3ccc(-c4ccccc4)nc3)cc2s1 (stereo not shown) [Example 498, N-[(cyclopropyl-carbamoyl)methyl]-2-(dimethyl-sulfamoyl)-2-[4-fluoro-6-(6-phenylpyridin-3-yl)-1,3-benzothiazol-2-yl]acetamide]",3
7,"COCCS(=O)(=O)C(C(=O)NCC(=O)NC1CC1)c1nc2c(F)cc(-c3ccc4[nH]c(=O)ccc4c3)cc2s1 (stereo not shown) [Example 216, N-[(cyclopropyl-carbamoyl)methyl]-2-[4-fluoro-6-(2-oxo-1,2-dihydroquinolin-6-yl)-1,3-benzothiazol-2-yl]-2-(2-methoxyethane-sulfonyl) acetamide]",19
8,"CS(=O)(=O)C(C(=O)NCC(=O)NC1CC1)c1nc2ccc(-c3ccc(=O)n(-c4ccccc4)c3)cc2s1 (stereo not shown) [Example 583, N-[(cyclopropyl-carbamoyl)methyl]-2-methanesulfonyl-2-[6-(6-oxo-1-phenyl-1,6-dihydropyridin-3-yl)-1,3-benzothiazol-2-yl]acetamide]",20
9,"COCCS(=O)(=O)C(C(=O)NCC(=O)NC1CC1)c1nc2cc(F)c(-c3ccc(-n4ccnc4)cc3)cc2s1 (stereo not shown) [Example 581, N-[(cyclopropyl-carbamoyl)methyl]-2-{5-fluoro-6-[4-(1H-imidazol-1-yl)phenyl]-1,3-benzothiazol-2-yl}-2-(2-methoxyethane-sulfonyl)acetamide]",36
10,"O=C(CNC(=O)C(c1nc2cc(-c3ccc(F)nc3)ccc2s1)S(=O)(=O)Cc1ccc(C(F)(F)F)cc1)NC1CC1 (stereo not shown) [Example 17, N-[(cyclopropyl-carbamoyl)methyl]-2-[5-(6-fluoropyridin-3-yl)-1,3-benzothiazol-2-yl]-2-{[4-(trifluoromethyl)phenyl]methanesulfonyl} acetamide]",46

# Same assay, conditions: EL from conditioned media of HT-1080 cells; 30 min preincubation at 37° C.
row,IC50 [nM],SMILES
1,19,"Cc1ncc(-c2cc3sc(C(C(=O)NCC(=O)NC4CC4)S(C)(=O)=O)nc3cc2OC(F)F)cn1 (stereo not shown) [Example 601, N-[(Cyclopropylcarbamoyl)methyl]-2-[5-(difluoromethoxy)-6-(2-methylpyrimidin-5-yl)-1,3-benzothiazol-2-yl]-2-methanesulfonylacetamide]"
2,6.6,"O=C(CNC(=O)C(c1nc2ccc(-c3ccccc3)cc2s1)S(=O)(=O)c1ccccc1)NC1CC1 (stereo not shown) [Example 430, 2-(Benzenesulfonyl)-N-[(cyclopropylcarbamoyl)methyl]-2-(6-phenyl-1,3-benzothiazol-2-yl)acetamide]"
3,6,"CS(=O)(=O)C(C(=O)NCC(=O)NC1CC1)c1nc2cc(F)c(-c3ccc(-n4ccnc4)cc3)cc2s1 (stereo not shown) [Example 579, N-[(Cyclopropylcarbamoyl)methyl]-2-{5-fluoro-6-[4-(1H-imidazol-1-yl)phenyl]-1,3-benzothiazol-2-yl}-2-methanesulfonylacetamide]"

# The next lines start with the compound.
row,SMILES,IC50 [nM]
1,"COCCS(=O)(=O)C(C(=O)NCC(=O)NC1CC1)c1nc2ccc(-c3ccnc(O)c3F)cc2s1 (stereo not shown) [Example 598, N-(2-(Cyclopropylamino)-2-oxoethyl)-2-(6-(3-fluoro-2-hydroxypyridin-4-yl)benzo[d]thiazol-2-yl)-2-((2-methoxyethyl)sulfonyl)acetamide]",101
2,"O=C(CNC(=O)C(c1nc2cc(F)c(-c3ccc(C(=O)NCCc4ccccc4)cc3)cc2s1)S(=O)(=O)CCC(F)(F)F)NC1CC1 (stereo not shown) [Example 572, 4-[2-({[(Cyclopropylcarbamoyl)methyl]carbamoyl}(3,3,3-trifluoropropanesulfonyl)methyl)-5-fluoro-1,3-benzothiazol-6-yl]-N-(2-phenylethyl)benzamide]",2.8
